According to patent US9133207B2, “Tetrandrine derivatives with substituted 5-carbon, preparation method and use thereof” (Hangzhou Bensheng Pharmaceutical Co., Ltd., priority 2011, dated 2015):
In brackets after ≈: the same amount, converted by molar mass.

Experiments:
[1] = system: CaES-17 (esophageal cancer cell); assay: Solid tumor cell growth inhibition, MTT, 72 h (Example 7); type: cell-based, human; conditions: Homo sapiens, CaEs17; 72 h, MTT, CAES-17
Protocol: (§1) Human solid tumor cell lines: Hep-2 (laryngeal carcinoma), A549 (human lung cancer), CaES-17 (esophageal cancer cell), PC-3 (prostate cancer), CNE (nasopharyngeal carcinoma cell) and SK-OV-3 (ovarian cancer cell), all of which are purchased from China Center For Type Culture Collection; RKO (human colon adenocarcinoma cell), MGC 803 (human gastric cancer cell), MG63 (osteosarcoma), and U87 MG (malignant glioma cell), all of which are purchased from Fuxiang Bio-tech Co. Ltd., Shanghai, China; PANC-1 (pancreatic cancer), Huh? (human liver cancer cell), Becap37 (human breast cancer cell), and Hela (human cervical cancer cell), all of which are donated by Cancer Research Institute of Zhejiang University, China.
(§2) Reagents: the same as in Example 5.
(§3) Obtaining 4000 well-growing human solid tumor cells and inoculating them into wells of a 96-well cell culture plate. The culture medium is DMEM High Glucose cell culture medium containing 10% fetal bovine serum. The plate is placed in a carbon dioxide cell incubator (5% CO2) at 37° C. and incubated for 24 hours. After been added with tetrandrine derivatives of different concentration and mixing uniformly, the plate is placed in a carbon dioxide cell incubator (5% CO2) at 37° C. and incubated for 72 hours. Then the viable cell concentration is determined by the MTT method and the cell viability (%) after drug treatment is calculated. In this experiment, the cell viability of control group (not treated with any compound) is set as 100%.

[2] = system: PANC-1 (pancreatic cancer); assay: as above; type: cell-based, human; conditions: Homo sapiens; 72 h, MTT, PANC-1
Protocol: as §1, §2, §3

PC-3 (prostate cancer) = assay: as above; type: cell-based, human; conditions: Homo sapiens; 72 h, MTT, PC-3
Protocol: as §1, §2, §3

MG63 (osteosarcoma) = assay: as above; type: cell-based, human; conditions: Homo sapiens; 72 h, MTT, MG-63
Protocol: as §1, §2, §3

[3] = system: K562/adr (drug-resistant, chronic myeloid leukemia, CML); assay: Leukemia cell growth inhibition, MTT, 72 h (Example 5); type: cell-based, human; conditions: for IC50 / IC90: Homo sapiens, K562/Adr, 72 h, MTT
From the text: (§4) Leukemia cell lines: leukemia cell lines: K562/adr (drug-resistant, chronic myeloid leukemia, CML), NB4 (acute promyelocytic leukemia, AML), Kasumi-1 (acute myeloid leukemia M2 type, AML-M2), Jurkat (acute lymphoblastic leukemia, ALL), all of which are donated by Cancer Research Institute of Zhejiang University, China; and H9 (acute lymphoblastic leukemia, ALL), which is purchased from China Center for Type Culture Collection.
(§5) Reagents: The standard sample of tetrandrine (TTD) is purchased from Ci Yuan Biotechnology Co., Ltd., Shaanxi, China; and the 5-substituted tetrandrine derivatives of the present invention.
(§6) Obtaining 6000 well-growing leukemia cells and inoculating them into wells of a 96-well cell culture plate. The culture medium is a 1640 cell culture medium containing 10% fetal bovine serum. After adding the tetrandrine derivatives of different concentrations and mixing uniformly, placing the plate in a carbon dioxide cell incubator (5% CO2) at 37° C. and incubating for 72 hours. Then the viable cell concentration is determined by the MTT method.

[4] = system: Kasumi-1 (acute myeloid leukemia M2 type, AML-M2); assay: as above; type: cell-based, human; conditions: Homo sapiens, Kasumi 1
From the text: as §4, §5, §6

[5] = system: Jurkat (acute lymphoblastic leukemia, ALL); assay: as above; type: cell-based, human; conditions: Homo sapiens, Jurkat; 72 h, MTT
From the text: as §4, §5, §6

[6] = system: H9 (acute lymphoblastic leukemia, ALL); assay: as above; type: cell-based, human; conditions: Homo sapiens; 72 h, MTT
From the text: as §4, §5, §6

[7] = system: Becap37 (human breast cancer cell); assay: Solid tumor cell growth inhibition, MTT, 72 h (Example 7); type: cell-based; conditions: Homo sapiens; 72 h, MTT, Becap-37
Protocol: as §1, §2, §3

[8] = system: MGC 803 (human gastric cancer cell); assay: as above; type: cell-based; conditions: Homo sapiens
Protocol: as §1, §2, §3

[9] = system: RKO (human colon adenocarcinoma cell); assay: as above; type: cell-based; conditions: Homo sapiens; 72 h, MTT, RKO
Protocol: as §1, §2, §3

[10] = system: Huh7 (human liver cancer cell); assay: as above; type: cell-based; conditions: Homo sapiens; 72 h, MTT, Huh-7
Protocol: as §1, §2, §3

A549 (human lung cancer) = assay: as above; type: cell-based; conditions: Homo sapiens; 72 h, MTT, A549
Protocol: as §1, §2, §3

[11] = system: RPMI8226 (multiple myeloma); assay: Multiple myeloma cell growth inhibition, MTT, 72 h (Example 6); type: cell-based, human; conditions: for IC50 / IC90: Homo sapiens, RPMI-8226, 72 h, MTT, RPMI8226
Protocol: Multiple myeloma and lymphoma cell lines: RPMI8226 (multiple myeloma), purchased from Fuxiang Bio-tech Co. Ltd., Shanghai, China.
as §2
as §6, with “incubated” for “incubating”

[12] = system: NB4 (acute promyelocytic leukemia, AML); assay: Leukemia cell growth inhibition, MTT, 72 h (Example 5); type: cell-based, human; conditions: Homo sapiens; 72 h, MTT
From the text: as §4, §5, §6

| IC50 [1] | IC90 [1] | IC50 [2] | IC90 [2] | IC50 (MG63 (osteosarcoma)) | IC90 (MG63 (osteosarcoma)) | IC50 [3] | IC90 [3] | IC50 [4] | IC90 [4] | IC50 [5] | IC90 [5] | IC50 [6] | IC90 [6] | IC50 [7] | IC90 [7] | IC50 [8] | IC90 [8] | IC50 [10] | IC90 [10] | SMILES | also measured |
| --- | --- | --- | --- | --- | --- | --- | --- | --- | --- | --- | --- | --- | --- | --- | --- | --- | --- | --- | --- | --- | --- |
| 6.81 µg/mL (≈ 8.51 µM) | 16.6 µg/mL (≈ 20.8 µM) | 6.47 µg/mL (≈ 8.09 µM) | 11.1 µg/mL (≈ 13.9 µM) | 1.72 µg/mL (≈ 2.15 µM) | 4.69 µg/mL (≈ 5.86 µM) | 1.47 µg/mL (≈ 1.84 µM) | 14.5 µg/mL (≈ 18.1 µM) | 2.32 µg/mL (≈ 2.9 µM) | 7.5 µg/mL (≈ 9.38 µM) | 2.66 µg/mL (≈ 3.33 µM) | 9.06 µg/mL (≈ 11.3 µM) | 2.88 µg/mL (≈ 3.6 µM) | 5.84 µg/mL (≈ 7.3 µM) | 3.66 µg/mL (≈ 4.58 µM) | 6.19 µg/mL (≈ 7.74 µM) | 2.57 µg/mL (≈ 3.21 µM) | 9 µg/mL (≈ 11.3 µM) | 2.08 µg/mL (≈ 2.6 µM) | 3.88 µg/mL (≈ 4.85 µM) | COc1ccc2cc1Oc1ccc(cc1)C[C@H]1c3cc(c(OC)cc3CCN1C)Oc1c(OC)c(OC)c(COC(=O)c3ccc(N(C)C)cc3)c3c1[C@H](C2)N(C)CC3 [BS-TE-204] | IC50 (PC-3 (prostate cancer)): 6.55 µg/mL (≈ 8.19 µM); IC90 (PC-3 (prostate cancer)): 9 µg/mL (≈ 11.3 µM); IC50 [9]: 3.12 µg/mL (≈ 3.9 µM); IC90 [9]: 4.7 µg/mL (≈ 5.88 µM); IC50 (A549 (human lung cancer)): 3.12 µg/mL (≈ 3.9 µM); IC90 (A549 (human lung cancer)): 14.2 µg/mL (≈ 17.7 µM); IC50 [11]: 0.47 µg/mL (≈ 0.588 µM); IC90 [11]: 1.92 µg/mL (≈ 2.4 µM) |
| 7.2 µg/mL (≈ 10.2 µM) | 26.5 µg/mL (≈ 37.6 µM) | > 10 µg/mL | > 10 µg/mL | 6.87 µg/mL (≈ 9.76 µM) | 35.6 µg/mL (≈ 50.6 µM) | 0.1 µg/mL (≈ 0.142 µM) | 1.33 µg/mL (≈ 1.89 µM) | 0.5 µg/mL (≈ 0.71 µM) | 3.4 µg/mL (≈ 4.83 µM) | 0.91 µg/mL (≈ 1.29 µM) | 3.31 µg/mL (≈ 4.7 µM) | 1.19 µg/mL (≈ 1.69 µM) | 2 µg/mL (≈ 2.84 µM) | 1.62 µg/mL (≈ 2.3 µM) | 2.48 µg/mL (≈ 3.52 µM) | 1.26 µg/mL (≈ 1.79 µM) | 1.82 µg/mL (≈ 2.59 µM) | 8.16 µg/mL (≈ 11.6 µM) | 15.9 µg/mL (≈ 22.5 µM) | COc1ccc2cc1Oc1ccc(cc1)C[C@H]1c3cc(c(OC)cc3CCN1C)Oc1c(OC)c(OC)c(CN3CC=CC3)c3c1[C@H](C2)N(C)CC3 [BS-TE-329] | anti-K562/adr activity increase over tetrandrine ([3]; compared with tetrandrine): ~4 fold; IC50 [12]: 2.05 µg/mL (≈ 2.91 µM); IC90 [12]: 3.9 µg/mL (≈ 5.54 µM); IC50 (A549 (human lung cancer)): 2.36 µg/mL (≈ 3.35 µM); IC90 (A549 (human lung cancer)): 4.77 µg/mL (≈ 6.78 µM); IC50 [11]: 0.004 µg/mL (≈ 0.00568 µM); IC90 [11]: 0.29 µg/mL (≈ 0.412 µM); anti-RPMI8226 activity increase over tetrandrine ([11]; compared with tetrandrine): ~90 fold |
| 2.4 µg/mL (≈ 3.41 µM) | 7.94 µg/mL (≈ 11.3 µM) | 6.17 µg/mL (≈ 8.78 µM) | 9.8 µg/mL (≈ 13.9 µM) | 1.96 µg/mL (≈ 2.79 µM) | 4.38 µg/mL (≈ 6.23 µM) | 0.56 µg/mL (≈ 0.797 µM) | 2.83 µg/mL (≈ 4.03 µM) | 1.45 µg/mL (≈ 2.06 µM) | 6.95 µg/mL (≈ 9.89 µM) | 2.37 µg/mL (≈ 3.37 µM) | 5.51 µg/mL (≈ 7.84 µM) | 2.03 µg/mL (≈ 2.89 µM) | 4.03 µg/mL (≈ 5.73 µM) | 6 µg/mL (≈ 8.54 µM) | 12 µg/mL (≈ 17.1 µM) | 1.61 µg/mL (≈ 2.29 µM) | 6.48 µg/mL (≈ 9.22 µM) | 2.96 µg/mL (≈ 4.21 µM) | 4.9 µg/mL (≈ 6.97 µM) | COc1ccc2cc1Oc1ccc(cc1)C[C@H]1c3cc(c(OC)cc3CCN1C)Oc1c(OC)c(OC)c(Cn3cccn3)c3c1[C@H](C2)N(C)CC3 [BS-TE-330] | IC50 (PC-3 (prostate cancer)): 3.68 µg/mL (≈ 5.24 µM); IC90 (PC-3 (prostate cancer)): 7.59 µg/mL (≈ 10.8 µM); IC50 [9]: 2.5 µg/mL (≈ 3.56 µM); IC90 [9]: 4.64 µg/mL (≈ 6.6 µM); IC50 (A549 (human lung cancer)): 5.44 µg/mL (≈ 7.74 µM); IC90 (A549 (human lung cancer)): 16 µg/mL (≈ 22.7 µM); IC50 [11]: 0.18 µg/mL (≈ 0.256 µM); IC90 [11]: 1.22 µg/mL (≈ 1.74 µM) |
| 3.06 µg/mL (≈ 4.12 µM) | 9.92 µg/mL (≈ 13.4 µM) | 5.79 µg/mL (≈ 7.79 µM) | 9 µg/mL (≈ 12.1 µM) | 1.26 µg/mL (≈ 1.7 µM) | 4.35 µg/mL (≈ 5.86 µM) | 0.63 µg/mL (≈ 0.848 µM) | 3 µg/mL (≈ 4.04 µM) | 1.1 µg/mL (≈ 1.48 µM) | 4.84 µg/mL (≈ 6.51 µM) | 1.38 µg/mL (≈ 1.86 µM) | 4.74 µg/mL (≈ 6.38 µM) | 1.31 µg/mL (≈ 1.76 µM) | 4.5 µg/mL (≈ 6.06 µM) | 1.4 µg/mL (≈ 1.88 µM) | 4.85 µg/mL (≈ 6.53 µM) | 4.38 µg/mL (≈ 5.9 µM) | > 10 µg/mL | 3.61 µg/mL (≈ 4.86 µM) | 4.98 µg/mL (≈ 6.7 µM) | COc1ccc2cc1Oc1ccc(cc1)C[C@H]1c3cc(c(OC)cc3CCN1C)Oc1c(OC)c(OC)c(CNCc3ccccn3)c3c1[C@H](C2)N(C)CC3 [BS-TE-352] | IC50 (PC-3 (prostate cancer)): 4.53 µg/mL (≈ 6.1 µM); IC90 (PC-3 (prostate cancer)): 7.51 µg/mL (≈ 10.1 µM); IC50 [12]: 1.05 µg/mL (≈ 1.41 µM); IC90 [12]: 3.88 µg/mL (≈ 5.22 µM); IC50 (A549 (human lung cancer)): 1.35 µg/mL (≈ 1.82 µM); IC90 (A549 (human lung cancer)): 4.58 µg/mL (≈ 6.16 µM); IC50 [11]: 0.09 µg/mL (≈ 0.121 µM); IC90 [11]: 0.76 µg/mL (≈ 1.02 µM) |
